Assay results as given in patent publication US5846934A, “Pure somatostatin antagonist and methods of use thereof” (American Cyanamid Company, priority 1997, dated 1998).
Positions of bridges follow the written chain, without caps; N, C: chain ends. Non-standard residues stand in square brackets, D forms with d. Residues, ends and D or L forms follow the SMILES beside them. NMePhe(4-NO2) = CN[C@@H](Cc1ccc([N+](=O)[O-])cc1)C(=O)O; Phe(4-NO2) = N[C@@H](Cc1ccc([N+](=O)[O-])cc1)C(=O)O; 2Nal = N[C@@H](Cc1ccc2ccccc2c1)C(=O)O; Orn = NCCC[C@H](N)C(=O)O; Abu = CC[C@H](N)C(=O)O

What was measured:
[1] = target: T1, rat somatostatin receptor subtype 2 (SSTR2) (Rattus norvegicus, UniProt P30680); experiment: Yeast assay, somatostatin agonist activity (zone of growth of modified yeast cells); format: cell-based; parameters: key: 1 is minimum agonist activity; 5 is maximum agonist activity; --: When no activity is observed, the result is indicated by a dash; settings: rating on a scale of 1-5 from zone of growth; S. cerevisiae LY364 expressing rat SSTR2
T1 construct: expressed in transfected cells; host or cells: Saccharomyces cerevisiae LY364 bearing pJH2 (SSTR2) and pLP82 (G protein)
Experimental: (§1) In this evaluation, yeast cells which have been specifically modified to functionally express rat somatostatin receptor subtype 2 (SSTR2) on their cell surfaces are used. S. Cerevisiae LY364 cells are plated in a standard synthetic agar medium which lacks histidine. In the absence of a somatostatin receptor agonist, the auxotrophic (his3) cells are unable to grow. In the presence of somatostatin, or a somatostatin agonist, the expression of an enzyme (His3p: imidazole-glycerol phosphate dehydratase) which is essential for histidine biosynthesis is induced. The cells become competent to produce histidine, resulting in a zone of growing cells around the applied test compound. The zone is measured and the test compound is given an agonist rating on a scale of 1-5 wherein 1 is minimum agonist activity and 5 is maximum agonist activity.
1) Inoculate 2 mL SCD-ura-trp liquid medium in Falcon 2051 tube with a single colony taken from a plate containing LY364 (MATa ura3-52 leu2 his3 trp1 lys2 ade2 far1:: LYS2 fus1:: FUS1-HIS3 gpa1::hisG sst2::.ADE2 bearing the SSTR2 expression plasmid, pJH2, and the G protein expression plasmid, pLP82) cells.
3) Add 1 mL of LY364 culture to 1 liter of agar medium.
8) Incubate plates at 30° C.
Day 5. Begin checking plates for growth around applied compounds.
(§2) Day 7. Growth in response to somatostatin should be readily observable. Rate extent of growth or inhibition of growth according to rating scale described hereinabove.

[2] = target: T1, rat somatostatin receptor subtype 2 (SSTR2); experiment: Yeast assay, somatostatin antagonist activity (zone of no growth in presence of S-14); format: cell-based; parameters: key: 1 is minimum antagonist activity; 5 is maximum antagonist activity; --: When no activity is observed, the result is indicated by a dash; settings: rating on a scale of 1-5 from zone of no growth; 5 μL of 1 mg/mL S-14 added to each plate
Experimental: as §1
To evaluate the somatostatin antagonist activity of a test compound, the above procedure is followed except on day 3, 5 μL of 1 mg/mL of somatostatin, S-14, is added to each plate, before applying the test compound. If the test compound is an antagonist of somatostatin, then a zone of no growth will appear within the cell growth zone. This zone of no growth is measured and the test compound is given an antagonist rating on a scale of 1-5 wherein 1 is minimum antagonist activity and 5 is maximum antagonist activity.
The results are shown in Table I. When no activity is observed, the result is indicated by a dash.
On day 3, add 5 μL 1 mg/mL S-14 to each plate.
as §2

SSTR2 = SSTR2 (Rattus norvegicus, UniProt P30680); experiment: Competitive binding, displacement of [125I]Tyr11 S-14; parameters: expressed in transfected cells; membrane protein; settings: for Ki: calculated by method of Cheng and Prusoff, read-out: SSTR2 Binding Affinity Ki; for IC50: displacement of [125I]Tyr11 S-14, 250 pM, room temperature, 2 hours, read-out: SSTR2 Binding Affinity IC50
Experimental: In this evaluation the concentration of test compound required to displace 50% of somatostatin, SRIF, from the SRIF receptor subtypes expressed in mammalian cells is measured, i.e., the concentration required to inhibit 50% of [^125 I] Tyr^11 S-14 (Amersham) (IC50) from binding to the SRIF receptor subtypes.
Radiolabeled SRIF is mixed with pituitary cells, the test compound is added, the mixture is incubated and the radioactivity is measured as compared to control. Reduced radioactivity indicates successful competitive binding of the test compound to the pituitary cell receptor. The concentration of the test compound in nanomolar units required to displace 50% of SRIF from the pituitary cell receptor is calculated and reported in Table II as the IC50 value. Also calculated is the inhibitory constant, Ki.
Tyr^11 S-14 (150,000 cpm at 2000 Ci/mmole, 250 pM final concentration). The binding reaction is initiated by adding 2-60 μg of membrane protein in a 170 μL volume. Final reaction volume is 200 μl/well. All incubations are carried out at room temperature for 2 hours. Free radioligand is separated from bound ligand by rapid filtration through a glass fiber filter (IH-201-HA) using an Inotech cell harvester. The filter is then washed several times with cold (4° C.) binding buffer lacking BSA and protease inhibitors prior to counting in an LKB gamma master counter (78% efficiency). Whatman GFC filters presoaked in 0.3% polyethylenimine (to decrease background) are used.
The IC50 values and Ki values are calculated using the well-known methods described by Y. Cheng and W. H. Prusoff, Biochem. Pharmacol. 22, 3099-3108 (1973), incorporated herein by reference thereto.

Chain of SSTR2 (P30680 whole entry): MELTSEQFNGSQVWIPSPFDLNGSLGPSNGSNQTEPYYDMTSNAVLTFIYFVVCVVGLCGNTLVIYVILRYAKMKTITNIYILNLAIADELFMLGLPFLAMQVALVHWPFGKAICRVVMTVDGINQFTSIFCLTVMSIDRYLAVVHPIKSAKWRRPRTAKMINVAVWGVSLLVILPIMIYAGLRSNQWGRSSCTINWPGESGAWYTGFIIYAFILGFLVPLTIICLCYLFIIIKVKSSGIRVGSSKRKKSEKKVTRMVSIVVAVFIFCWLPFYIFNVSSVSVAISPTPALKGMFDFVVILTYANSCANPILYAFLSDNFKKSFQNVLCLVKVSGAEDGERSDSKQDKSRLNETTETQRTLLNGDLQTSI
T1 sequence (P30680 whole entry): as above

| Compound | Yeast Assay Agonist [1] | Yeast Assay Antagonist [2] | Ki (SSTR2) | IC50 (SSTR2) |
| --- | --- | --- | --- | --- |
| CC(=O)N[C@@H](Cc1ccc(I)cc1)C(=O)N[C@@H]1CSSC[C@@H](C(=O)N[C@H](Cc2ccc(O)cc2)C(N)=O)NC(=O)[C@H]([C@@H](C)O)NC(=O)[C@H](CCCCN)NC(=O)[C@@H](Cc2c[nH]c3ccccc23)NC(=O)[C@H](Cc2ccc(O)cc2)NC1=O [Ac-4-IPhe Tyr Lys Thr D-Tyr] | -- | 4 |  |  |
| C[C@@H](O)[C@@H]1NC(=O)[C@H](CCCNC(=N)N)NC(=O)[C@@H](Cc2c[nH]c3ccccc23)NC(=O)[C@H](Cc2ccc(O)cc2)NC(=O)[C@H](NC(=O)[C@@H](N)Cc2ccc([N+](=O)[O-])cc2)CSSC[C@@H](C(=O)N[C@@H](Cc2ccc(O)cc2)C(N)=O)NC1=O [4-NO2 Phe Tyr Arg Thr Tyr] (H-[Phe(4-NO2)][dC]Y[dW]RTCY-NH2; disulfide 2-7 (inferred); N-terminus and C-terminus assumed) | -- | 2 | 25 nM | 57 nM |
| CC(=O)N[C@@H](Cc1ccc2ccccc2c1)C(=O)N[C@@H]1CSSC[C@@H](C(=O)N[C@@H](Cc2ccc(O)cc2)C(N)=O)NC(=O)[C@H]([C@@H](C)O)NC(=O)[C@H](CCCCN)NC(=O)[C@@H](Cc2c[nH]c3ccccc23)NC(=O)[C@H](Cc2ccc(O)cc2)NC1=O [Ac-Nal(2) Tyr Lys Thr Tyr] (Ac-[2Nal][dC]Y[dW]KTCY-NH2; disulfide 2-7 (inferred); N-terminus and C-terminus assumed) | -- | 1 | 0.48 nM | 1 nM |
| C[C@@H](O)[C@@H]1NC(=O)[C@H](CCCCN)NC(=O)[C@@H](Cc2c[nH]c3ccccc23)NC(=O)[C@H](Cc2ccc(O)cc2)NC(=O)[C@H](NC(=O)[C@@H](N)Cc2ccc3ccccc3c2)CSSC[C@@H](C(=O)N[C@@H](Cc2ccc(O)cc2)C(N)=O)NC1=O [L-Nal(2) Tyr Lys Thr Tyr] (H-[2Nal][dC]Y[dW]KTCY-NH2; disulfide 2-7 (inferred); N-terminus and C-terminus assumed) | -- | 1 | 0.4 nM | 0.9 nM |
| CC(=O)N[C@@H](Cc1ccc([N+](=O)[O-])cc1)C(=O)N[C@@H]1CSSC[C@@H](C(=O)N[C@H](Cc2ccc(O)cc2)C(N)=O)NC(=O)[C@H]([C@@H](C)O)NC(=O)[C@H](CCCCN)NC(=O)[C@@H](Cc2c[nH]c3ccccc23)NC(=O)[C@H](Cc2ccc(O)cc2)NC1=O [Ac-4-NO2 Phe Tyr Lys Thr D-Tyr] | -- | 4 | 0.3 nM | 0.7 nM |
| CC[C@@H]1NC(=O)[C@H](CCCCN)NC(=O)[C@@H](Cc2c[nH]c3ccccc23)NC(=O)[C@H](Cc2ccc(O)cc2)NC(=O)[C@H](NC(=O)[C@@H](N)Cc2ccc([N+](=O)[O-])cc2)CSSC[C@@H](C(=O)N[C@@H](Cc2ccc(O)cc2)C(N)=O)NC1=O [4-NO2 Phe Tyr Lys Abu Tyr] (H-[Phe(4-NO2)][dC]Y[dW]K[Abu]CY-NH2; disulfide 2-7) | -- | 3 | 1.78 nM | 4 nM |
| CC(C)[C@@H]1NC(=O)[C@H](CCCCN)NC(=O)[C@@H](Cc2c[nH]c3ccccc23)NC(=O)[C@H](Cc2ccc(O)cc2)NC(=O)[C@H](NC(=O)[C@@H](N)Cc2ccc3ccccc3c2)CSSC[C@@H](C(=O)N[C@@H](Cc2ccc(O)cc2)C(N)=O)NC1=O [L-Nal(2) Tyr Lys Val Tyr] (H-[2Nal][dC]Y[dW]KVCY-NH2; disulfide 2-7) | -- | 3 | 2.22 nM | 5 nM |
| CC(C)[C@@H]1NC(=O)[C@H](CCCCN)NC(=O)[C@@H](Cc2c[nH]c3ccccc23)NC(=O)[C@H](Cc2ccc(O)cc2)NC(=O)[C@H](NC(=O)[C@@H](N)Cc2ccc([N+](=O)[O-])cc2)CSSC[C@@H](C(=O)N[C@@H](Cc2ccc(O)cc2)C(N)=O)NC1=O [4-NO2 Phe Tyr Lys Val Tyr] (H-[Phe(4-NO2)][dC]Y[dW]KVCY-NH2; disulfide 2-7 (inferred); N-terminus and C-terminus assumed) | -- | 5 | 12.9 nM | 29 nM |
| CN[C@@H](Cc1ccc([N+](=O)[O-])cc1)C(=O)N[C@@H]1CSSC[C@@H](C(=O)N[C@@H](Cc2ccc(O)cc2)C(N)=O)NC(=O)[C@H](C(C)C)NC(=O)[C@H](CCCCN)NC(=O)[C@@H](Cc2c[nH]c3ccccc23)NC(=O)[C@H](Cc2ccc(O)cc2)NC1=O [NMe-4-NO2 Phe Tyr Lys Val Tyr] (H-[NMePhe(4-NO2)][dC]Y[dW]KVCY-NH2; disulfide 2-7 (inferred); N-terminus and C-terminus assumed) | -- | 5 | 2.67 nM | 6 nM |
| CC(C)[C@@H]1NC(=O)[C@H](CCCN)NC(=O)[C@@H](Cc2c[nH]c3ccccc23)NC(=O)[C@H](Cc2ccc(O)cc2)NC(=O)[C@H](NC(=O)[C@@H](N)Cc2ccc([N+](=O)[O-])cc2)CSSC[C@@H](C(=O)N[C@@H](Cc2ccc(O)cc2)C(N)=O)NC1=O [4-NO2 Phe Tyr Orn Val Tyr] (H-[Phe(4-NO2)][dC]Y[dW][Orn]VCY-NH2; disulfide 2-7 (inferred); N-terminus and C-terminus assumed) | -- | 1 |  |  |
| CC(C)[C@@H]1NC(=O)[C@H](CCCCN)NC(=O)[C@@H](Cc2c[nH]c3ccccc23)NC(=O)[C@H](Cc2ccc(O)cc2)NC(=O)[C@H](NC(=O)[C@@H](N)Cc2ccc([N+](=O)[O-])cc2)CSSC[C@@H](C(=O)N[C@@H](Cc2ccc3ccccc3c2)C(N)=O)NC1=O [4-NO2 Phe Tyr Lys Val Nal(2)] (H-[Phe(4-NO2)][dC]Y[dW]KVC[2Nal]-NH2; disulfide 2-7 (inferred); N-terminus and C-terminus assumed) | -- | 2 | 3.1 nM | 7 nM |
| C[C@@H](O)[C@@H]1NC(=O)[C@H](CCCCN)NC(=O)[C@@H](Cc2c[nH]c3ccccc23)NC(=O)[C@H](Cc2ccc(O)cc2)NC(=O)[C@H](NC(=O)[C@@H](N)Cc2ccc([N+](=O)[O-])cc2)CSSC[C@@H](C(=O)N[C@H](Cc2ccc(O)cc2)C(N)=O)NC1=O [4-NO2 Phe Tyr Lys Thr D-Tyr] | -- | 4 | 1.5 nM | 3 nM |
| C[C@@H](O)[C@@H]1NC(=O)[C@H](CCCCN)NC(=O)[C@@H](Cc2c[nH]c3ccccc23)NC(=O)[C@H](Cc2ccc(O)cc2)NC(=O)[C@H](NC(=O)[C@@H](N)Cc2ccc([N+](=O)[O-])cc2)CSSC[C@@H](C(=O)N[C@@H](Cc2ccc(O)cc2)C(N)=O)NC1=O [4-NO2 Phe Tyr Lys Thr Tyr] | -- | 5 | 1.33 nM | 3 nM |
